The values below come from patent US9593139B2, “Compositions, methods, and kits comprising platinum compounds associated with a ligand comprising a targeting moiety” (priority 2013, dated 2017).

The subject of one assay is A2780CP70 cells. Description: MTT cytotoxicity assay, cisplatin-resistant ovarian cancer cell line. Format: cell-based. As to conditions: for IC50: A2780CP70 (cisplatin-resistant), MTT, 72 h incubation; for R.F. (resistance factor, IC50(resistant)/IC50(sensitive)): A2780CP70 vs A2780, 72 h incubation. The method, then: (§1) A2780 and A2780CP70 (ovarian cisplatin-sensitive and -resistant) cell lines were obtained from Fox Chase Cancer Center and cultured in RPMI-1640 medium supplemented with 10% fetal bovine serum (FBS) and 1% penicillin/streptomycin.
(§2) The colorimetric MTT assay was used to assess cytotoxicity. In a 96-well plate, 2000 cells per well were seeded in 100 μL growth medium and allowed to attach overnight. The growth media was then aspirated and replaced with 100 μL of growth medium containing varying concentrations of the platinum complexes. Six wells were used per concentration level. After 72 h, the platinum-containing media was aspirated and replaced with 200 μL of RPMI-1640 containing 0.67 mg/mL MTT. The cells were further incubated for 4 h. The MTT solution was removed, and the resulting purple formazan crystals were dissolved in 100 μL of 25:1 mixture of DMSO and aqueous ammonia. The absorbance was measured at 550 nm. The absorbance values were normalized to the Pt-free wells (100% cell viability) and are plotted versus platinum concentration. […] These experiments were repeated at least three times, and the reported IC50 values are the averages of these trials with the error estimated from the resulting standard deviations.

In another assay the test system is A2780 cells. Description: MTT cytotoxicity assay, cisplatin-sensitive ovarian cancer cell line. It counts as cell-based. To be noted: 72 h incubation. The method, then:
as §1, §2

For the compound `O=C1[O][Pt-2]2([NH2+]C3CCCC[C@H]3[NH2+]2)[O]C1=O` (stereo partly drawn) [Oxaliplatin, (R,R-1,2-diaminocyclohexane)oxalatoplatinum(II)], the figures for the half-maximal inhibitory concentration (IC50) in the assay on A2780CP70 cells and in the assay on A2780 cells were 1 µM and 0.25 µM, respectively. The “R.F. (resistance factor, IC50(resistant)/IC50(sensitive))” value in the assay on A2780CP70 cells is reported as 4.1 ± 0.4.

Take `N.N.[Cl][Pt][Cl]` [cisplatin, cis-diamminedichloroplatinum(II)]: the IC50 in the assay on A2780CP70 cells was found to be 5.2 ± 1.4 µM; in the assay on A2780 cells, 0.6 ± 0.08 µM. In addition, the “R.F. (resistance factor, IC50(resistant)/IC50(sensitive))” value with A2780CP70 cells came out at 8.7 ± 2.6.

In the case of [Pt(acac)(NH3)2](SO4)0.5, the IC50 was determined as 122 ± 10 µM in the assay with A2780CP70 cells and 13.9 ± 1.9 µM with A2780 cells. Besides, in the assay with A2780CP70 cells, the “R.F. (resistance factor, IC50(resistant)/IC50(sensitive))” value was 8.8 ± 1.4.

Consider “[Pt(succac)(NH3)2]-r(Fxr)3-CONH2 [Pt-MPP]”, for which, in the assay with A2780CP70 cells, half-maximal inhibition (IC50) required 5 ± 1.4 µM and the “R.F. (resistance factor, IC50(resistant)/IC50(sensitive))” value worked out at 0.7±0.2. Besides, the IC50 with A2780 cells amounted to 7.5 ± 0.3 µM.
